Laboratory results published in patent EP0319644A2, “Alkylated amide derivatives, their use and pharmaceutical compositions containing them” (THE GREEN CROSS CORPORATION, priority 1987, dated 1989).

How the values were obtained:
[1] = test system: water immersed restraint stress ulcerization; assay: Rat water immersed restraint stress ulcerization (Test Example 1); assay type: in vivo, male Wistar rats; settings: dose 5 mg/kg orally 90 minutes before stress loading; for Ulcer Index (Mean ± S.B.): 7 hours immersion at 22 ± 1 °C, suspended in saline containing 10% HCO-60, sum of ulcer lengths per rat; for Inhibition rate (%): versus untreated control
Procedure: Each test compound was suspended in physiological saline containing 10% polyoxyethylene cured caster oil (HCO-60: manufactured by Nikko Chemicals), and was then tested.
(§1) The test was conducted according to the method of rat water immersed restraint stress ulcerization proposed by Okabe et al. (Jpn. J. Pharmacol., 18, 9, (1968)). That is, male Wistar rats weighing 230 to 250 g were fasted for 24 hours, put in a stress cage in the erect position, and were immersed in a thermostatic water tank at 22 ± 1 °C up to the sternal process. The rats were sacrificed 7 hours later, and the stomach was removed. The pylorus was ligated and 10 ml of physiological saline was infused into the stomach. The cardia also was ligated and dipped in 1% formalin for 5 to 10 minutes. Afterwards, the stomach was opened along the greater curvature, and any blood deposited on the mucosa in the glandular portion was wiped off gently. The length of the remaining ulcers (erosions) was measured. The sum (mm) of the length of the ulcers in each rat was defined as the ulcer index. The test material was administered orally 90 minutes before stress loading (dose: 5 mg/kg).

[2] = test system: water immersed restraint stress ulcerization; assay: Rat water immersed restraint stress ulcerization, gum arabic preparation (Test Example 2); assay type: in vivo, Male Wister rats; settings: for Ulcer Index (Mean ± S.B.) / Inhibition rate (%): dose 25 mg/kg orally, preparation with 5% gum arabic (2 ml/kg); for Ulcer Index (Mean ± S.B.): rats fasted overnight; for Inhibition rate (%): versus control; for antiulcer activity: summary in words of Table 2, no significant difference between the two compounds
Procedure: as §1
Male Wister rats weighing 200 to 220 g were fasted overnight and the preparation containing Compound 2 (S-(2-cyclohexylethyl)-N-(2-decenoyl) cysteamine) and 5% gum arabic or the preparation containing the S-oxide derivarive of Compound 2 (S-(2-cyclohexylethyl)-N-(2-decenoyl) cysteamine S-oxide) and 5% gum arabic was orally administered to each rat (2 ml/kg).
Antiulcer activity of each test compound was evaluated in the same manner as in Test Example 1.

| SMILES | Ulcer Index (Mean ± S.B.) [1] [mm] | Inhibition rate (%) [1] [%] | Ulcer Index (Mean ± S.B.) [2] [mm] | Inhibition rate (%) [2] [%] | antiulcer activity [2] |
| --- | --- | --- | --- | --- | --- |
| CCCCCCCC=CC(=O)NCCSCCC1CCCCC1 [Compound 2, S-(cyclohexylethyl)-N-(2-decenoyl) cysteamine] | 6.7 ± 1.7 | 69.5 | 10.0 ± 1.5 | 58.0 | excellent antiulcer activity |
| CCCCCCC/C=C/C(=O)NCCSCC1CCCCN1C (stereo not drawn) [Compound 8, N-(2-decenoyl)-S-[(1-methylpiperidyl)methyl] cysteamine] | 8.0 ± 1.7 | 63.6 |  |  |  |
| CCCCCCCC=CC(=O)NCC[S+]([O-])CCC1CCCCC1 (stereo not drawn) [S-oxide of Compound 2, S-(2-cyclohexylethyl)-N-(2-decenoyl) cysteamine S-oxide] |  |  | 12.8 ± 1.9 | 46.2 | excellent antiulcer activity |
